Experimental data taken from article PMC7778552, “A Double-Edged Sword: The Anti-Cancer Effects of Emodin by Inhibiting the Redox-Protective Protein MTH1 and Augmenting ROS in NSCLC” (Journal of Cancer, 2021).

Target: T1, MutT homolog 1 (MTH1) (Homo sapiens, UniProt P36639)
T1 construct: gene NUDT1; N-terminal His-tagged, expressed in E. coli BL21-codon plus
Experiment: SPR with immobilized purified MTH1 (amine coupling)
Format: binding

Kd: 22.2 ± 0.68 µM
Compound: Cc1cc(O)c2c(c1)C(=O)c1cc(O)cc(O)c1C2=O [emodin, 1,3,8-trihydroxy-6-methylanthraquinone]
